System: common cockroaches
Experiment: Test I: insecticidal efficacy of sprayed glass plates after 24 hours, one minute contact, common cockroaches
Assay type: in vivo, Blatta orientalis
Details: compared with Dioxacarb
Method: After a standing time of 24 hours, tests to determine insecticidal efficacy were carried out on common cockroaches, these being placed on the treated face of the glass plate for one minute, and then transferred for observation to ventilated glass jars. […] The proportions recorded are shown below.

Compound: CNC(=O)Oc1ccccc1OC(C)C [Arprocarb, 2-isopropoxyphenyl N-methyl-carbamate]
- insecticidal behaviour in words: behaves exactly as Dioxacarb

— patent publication US4067990A, “Process for the preparation of insecticidal compositions based on carbamic esters” (Airwick Industries, Inc., priority 1971, dated 1978)
